The text below walks through data of US12295940B2, “Viral inhibitors, the synthesis thereof, and intermediates thereto” (Takeda Pharmaceutical Company Limited, priority 2022, dated 2025).

Series [1] is classed as physicochemical. Here is the method: The following solubility data was generated and referenced in one or more of the prior examples. A mixture of approx. 2 g of maribavir and 5 mL solvent was stirred overnight in sealed vials at different temperatures. The clear supernatant solutions were sampled for […] assay. All examples were done in triplicates. Table 3-5. Maribavir solubilities in iPrOAc and toluene.

A short description of series [2]: Stability data of process systems (Example 3-23). The format is physicochemical. The conditions noted are these: 7 days. The protocol:
The following stability data was generated and referenced in one or more of the prior examples. Stability of the following systems were studied and found to be stable for at least 7 days: Stability of Compound 3 HCl in MeOH/TBME at 40° C.; Stability of reaction mixture at 40° C. (amount of maribavir); Stability of biphasic mixture at 40° C. (before extraction); Stability of biphasic mixture at 40° C. (during last NaCl washing); Stability of reaction mixture after final distillation step at Stability of biphasic mixture at 75° C.; Stability of reaction mixture after final distillation step at 90° C.; Stability of crystallization mixture after dosage of 2nd portion of toluene at reflux; Stability of crystallization at 20° C.; Stability of mixture during slurry wash at 20-25° C.; Stability of maribavir in the mother liquor at 20-25° C.; Stability of wet cake at 70° C.; and Stability of dry cake at 70° C.

The format of series [3] is physicochemical. The conditions noted are these: pH 4. From the text: A preliminary test was done to determine the lower pH to be tested: Three samples of the biphasic mixture during 1st NaCl-wash was taken and adjusted separately to pH 4, 5, and 6. These samples were refluxed overnight and sampled for HPLC purity at different time points. […] It was observed that at lower pH values, some white precipitate occurred. This precipitate dissolved upon raising the pH with NaOH. It was assumed that this was the hydrochloride salt of maribavir. Upon further review, at pH<5.5, the precipitate occurred. Therefore, the lowest pH tested was 6. The distilled reaction mixtures were subjected to crystallization on a 400 ml Easymax scale.

As for `CC(C)Nc1nc2cc(Cl)c(Cl)cc2n1[C@H]1O[C@@H](CO)[C@H](O)[C@@H]1O` [Maribavir, (2S,3S,4R,5S)-2-(5,6-dichloro-2-(isopropylamino)-1H-benzo[d]imidazol-1-yl)-5-(hydroxymethyl)tetrahydrofuran-3,4-diol], the “Solubility in iPrOAc (in words)” value in series [1] is reported as “good solubility”. For the same compound, the “Stability (time found stable)” value in series [2] was “at least 7 days”. Further, the “Stability by HPLC purity (in words)” value in series [3] is recorded as “perfect stability”.
